Experimental data: patent US7365231B2, “Compound with antitumor activity and preparation method therefor” (National Taiwan University of Science & Technology, priority 2005, dated 2008)

Columns and labels:
[1] = Toxicity and body weight in nude mice, DPA once a week; assay type: in vivo; settings: DPA 20-80 mg kg^−1, i.p.
Method: (§1) We further examined whether DPA is also effective in vivo after tumor formation. For compare the in vivo antitumor activity with DPD (DPA analogue), we followed the method of our previous study (Br. J Cancer 2003; 89: 1995-2003), and the similar doses were used. Cancer cells were transplanted into ICR nude mice, and when the tumors were palpable (2-4 mm), the mice were treated either with vehicle control or DPA (20-80 mg kg^−1, i.p., once a week). […] Its tumor size (48.6 mm^2) was about 3-fold larger than the average tumor size (16.7 mm^2) of the other DPA 80 mg kg^−1-treated mice at 7 days after the initial treatment. […] (ii) DPA presented the dose-specific effect for antitumor activity on human colon cancer xenografts. The dose-specific phenomenon was also found in vitro study of DPA-induced cell cycle arrest on Colo 205 cells as shown in Table 3.

Colo 205 cells [2] = assay: Cell cycle analysis by flow cytometry; assay type: cell-based, human
Colo 205 cells [3] = assay: Reversibility of DPA-induced growth inhibition after drug withdrawal; assay type: cell-based, human
Method: To further investigate whether the DPA-induced growth inhibition was reversible, Colo 205 cells were treated with DPA for 72 hours, and the cells were withdrawn from DPA by culturing in fresh medium for another 48 or 72 hours. […] One possibility is that the relatively lipophilic nature of DPA or DPD reduced cellular efflux after the initial drug exposure. It is inferred that the irreversible property of adamantane and diamantane derivatives provides an advantage to prolong the anticancer activity.

[4] = system: human colon cancer Colo 205 xenografts; assay: In vivo antiproliferation, colon cancer xenografts, DPA once a week; set-up: species or system ICR nude mice; settings: for tumor size compared to vehicle control: end point
Method: as §1

Colo 205 cells [5] = assay: Cell cycle analysis by flow cytometry; assay type: cell-based, human; remark: listed apart in the source
Method: (§2) The cell cycle progression of Colo205, HT 29 and HCT-15 cells was examined using flow cytometry after exposure to 1, 2, 4 or 8 μM DPA for 72 hours. […] HT-29 cells were mainly in G0/G1 phase (84.1-86.0%), and only a few percent of cells in S phase (7.4-8.0%) after exposure to 4 μM DPA for 48-72 h. […] The G0/G1 arrest was not induced in the HCT-15 cells treated with 1-8 μM DPA for 24-72 h. […] DPA exerted the dose specific effect for the induced G0/G1 arrest on Colo 205 cells. […] In addition, we noted that DPA-mediated accumulation of Colo205 and HT 29 cells in G1 phase (>80%) was similar to that of DPD (Anti-Cancer Drug 2004; 15:277-80). It is likely that the induced G1-arrest without concomitant apoptosis on Colo 205 and HT 29 colon cancer cells is one unique property of structure I.

HCT-15 cells = assay: Cell cycle analysis by flow cytometry; assay type: cell-based, human
Method: as §2

[6] = Toxicity, body weight and histology, DPA twice a week; assay type: in vivo, ICR nude mice

Compound: Nc1ccc(Oc2ccc(C3(c4ccc(Oc5ccc(N)c(O)c5)cc4)C4CC5CC(C4)CC3C5)cc2)cc1O [DPA, 2,2-bis(4-(4-amino-3-hydroxyphenoxy)phenyl)adamantane]
- body weight [1]: No significant reduction in body weight
- G0/G1 cell-cycle arrest and apoptosis (Colo 205 cells [2]; Colo205): G0/G1 cell-cycle arrest without concomitant apoptosis
- cells in G1 phase (Colo 205 cells [2]; Colo 205, 2 μM DPA for 48-72 h): 84.1-87.1%
- cells in G2/M phase (Colo 205 cells [2]; Colo 205, 2 μM DPA for 48-72 h): 5.1-5.6%
- cells in S phase (Colo 205 cells [2]; Colo 205, 2 μM DPA for 48-72 h): 7.8-10.3%
- G0/G1(%) (Colo 205 cells [2]; Colo 205, DPA 1 μM, 24 h): 58.9%
- G2/M(%) (Colo 205 cells [2]; Colo 205, DPA 1 μM, 24 h): 12.0%
- S(%) (Colo 205 cells [2]; Colo 205, DPA 1 μM, 24 h): 29.0%
- G0/G1(%) (Colo 205 cells [2]; Colo 205, DPA 1 μM, 48 h): 53.3%
- G2/M(%) (Colo 205 cells [2]; Colo 205, DPA 1 μM, 48 h): 7.6%
- S(%) (Colo 205 cells [2]; Colo 205, DPA 1 μM, 48 h): 39.0%
- G0/G1(%) (Colo 205 cells [2]; Colo 205, DPA 1 μM, 72 h): 60.3%
- G0/G1(%) (Colo 205 cells [2]; Colo 205, DPA 2 μM, 24 h): 67.1%
- G2/M(%) (Colo 205 cells [2]; Colo 205, DPA 2 μM, 24 h): 48.3%
- S(%) (Colo 205 cells [2]; Colo 205, DPA 2 μM, 24 h): 24.1%
- G0/G1(%) (Colo 205 cells [2]; Colo 205, DPA 2 μM, 48 h): 84.1%
- G2/M(%) (Colo 205 cells [2]; Colo 205, DPA 2 μM, 48 h): 5.6%
- S(%) (Colo 205 cells [2]; Colo 205, DPA 2 μM, 48 h): 10.3%
- G0/G1(%) (Colo 205 cells [2]; Colo 205, DPA 2 μM, 72 h): 87.1%
- G2/M(%) (Colo 205 cells [2]; Colo 205, DPA 2 μM, 72 h): 5.1%
- S(%) (Colo 205 cells [2]; Colo 205, DPA 2 μM, 72 h): 7.8%
- G0/G1(%) (Colo 205 cells [2]; Colo 205, DPA 4 μM, 24 h): 67.5%
- G2/M(%) (Colo 205 cells [2]; Colo 205, DPA 4 μM, 24 h): 8.2%
- S(%) (Colo 205 cells [2]; Colo 205, DPA 4 μM, 24 h): 24.3%
- G0/G1(%) (Colo 205 cells [2]; Colo 205, DPA 4 μM, 48 h): 71.6%
- G2/M(%) (Colo 205 cells [2]; Colo 205, DPA 4 μM, 48 h): 10.4%
- S(%) (Colo 205 cells [2]; Colo 205, DPA 4 μM, 48 h): 18.1%
- G0/G1(%) (Colo 205 cells [2]; Colo 205, DPA 4 μM, 72 h): 76.3%
- G2/M(%) (Colo 205 cells [2]; Colo 205, DPA 4 μM, 72 h): 10.3%
- S(%) (Colo 205 cells [2]; Colo 205, DPA 4 μM, 72 h): 13.4%
- G0/G1(%) (Colo 205 cells [2]; Colo 205, DPA 8 μM, 24 h): 70.5%
- G2/M(%) (Colo 205 cells [2]; Colo 205, DPA 8 μM, 24 h): 5.2%
- S(%) (Colo 205 cells [2]; Colo 205, DPA 8 μM, 24 h): 24.3%
- G0/G1(%) (Colo 205 cells [2]; Colo 205, DPA 8 μM, 48 h): 70.6%
- G2/M(%) (Colo 205 cells [2]; Colo 205, DPA 8 μM, 48 h): 5.2%
- S(%) (Colo 205 cells [2]; Colo 205, DPA 8 μM, 48 h): 24.1%
- G0/G1(%) (Colo 205 cells [2]; Colo 205, DPA 8 μM, 72 h): 70.7%
- G2/M(%) (Colo 205 cells [2]; Colo 205, DPA 8 μM, 72 h): 3.4%
- S(%) (Colo 205 cells [2]; Colo 205, DPA 8 μM, 72 h): 25.8%
- proliferation activity after removal of DPA (Colo 205 cells [3]; 1 μM DPA 72 h, then 48-72 hours in fresh medium): reversed and returned to control level
- reversal of growth inhibition after removal of DPA (Colo 205 cells [3]; 2, 4 or 8 μM DPA 72 h, then 48-72 hours in fresh medium): no reversal effect
- cell viability (Colo 205 cells [3]; haemocytometer, treated cells except 8 μM DPA): > 90%
- concentration of maximum in vivo antitumor effect ([4]; Colo 205 xenografts, i.p.): about 40 mg kg^−1 week^−1
- tumor size compared to vehicle control ([4]; DPA 20 mg kg^−1 i.p. once a week): not significantly decreased
- tumor size compared to control groups ([4]; DPA 40 mg kg^−1 i.p. once a week): significantly (P<0.05) decreased
- average tumor size ([4]; DPA 40 mg kg^−1 i.p. once a week, end of study (control 81.5)): 29.6 mm^2
- tumor size of one mouse with abnormally large tumor ([4]; DPA 80 mg kg^−1, 7 days after initial treatment): 48.6 mm^2
- average tumor size of the other mice ([4]; DPA 80 mg kg^−1, 7 days after initial treatment, without the outlier mouse): 16.7 mm^2
- tumor size compared to vehicle control ([4]; DPA 80 mg kg^−1 i.p. once a week): not significantly decreased
- accumulation of cells in G1 phase (Colo 205 cells [5]; Colo205): > 80%
- G2/M(%) (Colo 205 cells [5]; Colo 205, DPA 1 μM, 72 h): 10.1%
- S(%) (Colo 205 cells [5]; Colo 205, DPA 1 μM, 72 h): 29.6%
- cells in G2/M phase (HCT-15 cells; 8 μM DPA for 24-48 h): 6.9-7.6%
- G0/G1 arrest (HCT-15 cells; 1-8 μM DPA for 24-72 h): not induced
- G0/G1(%) (HCT-15 cells; DPA 1 μM, 24 h): 31.4%
- G2/M(%) (HCT-15 cells; DPA 1 μM, 24 h): 18.1%
- S(%) (HCT-15 cells; DPA 1 μM, 24 h): 50.6%
- G0/G1(%) (HCT-15 cells; DPA 1 μM, 48 h): 39.1%
- G2/M(%) (HCT-15 cells; DPA 1 μM, 48 h): 15.8%
- S(%) (HCT-15 cells; DPA 1 μM, 48 h): 45.1%
- G0/G1(%) (HCT-15 cells; DPA 1 μM, 72 h): 51.8%
- G2/M(%) (HCT-15 cells; DPA 1 μM, 72 h): 13.2%
- S(%) (HCT-15 cells; DPA 1 μM, 72 h): 35.0%
- G0/G1(%) (HCT-15 cells; DPA 2 μM, 24 h): 31.8%
- G2/M(%) (HCT-15 cells; DPA 2 μM, 24 h): 14.2%
- S(%) (HCT-15 cells; DPA 2 μM, 24 h): 54.0%
- G0/G1(%) (HCT-15 cells; DPA 2 μM, 48 h): 35.2%
- G2/M(%) (HCT-15 cells; DPA 2 μM, 48 h): 16.0%
- S(%) (HCT-15 cells; DPA 2 μM, 48 h): 48.8%
- G0/G1(%) (HCT-15 cells; DPA 2 μM, 72 h): 49.2%
- G2/M(%) (HCT-15 cells; DPA 2 μM, 72 h): 14.3%
- S(%) (HCT-15 cells; DPA 2 μM, 72 h): 36.6%
- G0/G1(%) (HCT-15 cells; DPA 4 μM, 24 h): 30.6%
- G2/M(%) (HCT-15 cells; DPA 4 μM, 24 h): 11.2%
- S(%) (HCT-15 cells; DPA 4 μM, 24 h): 58.2%
- G0/G1(%) (HCT-15 cells; DPA 4 μM, 48 h): 30.5%
- G2/M(%) (HCT-15 cells; DPA 4 μM, 48 h): 14.3%
- S(%) (HCT-15 cells; DPA 4 μM, 48 h): 55.3%
- G0/G1(%) (HCT-15 cells; DPA 4 μM, 72 h): 40.8%
- G2/M(%) (HCT-15 cells; DPA 4 μM, 72 h): 17.2%
- S(%) (HCT-15 cells; DPA 4 μM, 72 h): 42.1%
- G0/G1(%) (HCT-15 cells; DPA 8 μM, 24 h): 39.6%
- G2/M(%) (HCT-15 cells; DPA 8 μM, 24 h): 6.9%
- S(%) (HCT-15 cells; DPA 8 μM, 24 h): 53.5%
- G0/G1(%) (HCT-15 cells; DPA 8 μM, 48 h): 37.5%
- G2/M(%) (HCT-15 cells; DPA 8 μM, 48 h): 7.6%
- S(%) (HCT-15 cells; DPA 8 μM, 48 h): 54.9%
- G0/G1(%) (HCT-15 cells; DPA 8 μM, 72 h): 38.2%
- G2/M(%) (HCT-15 cells; DPA 8 μM, 72 h): 11.9%
- S(%) (HCT-15 cells; DPA 8 μM, 72 h): 49.9%
- acute toxicity ([6]; DPA 20~80 mg/kg, i.p., twice a week): no obviously acute toxicity
- body weight ([6]; DPA-treated mice, twice a week): no significant reduction in body weight
- tissue damage in liver, lung and kidney ([6]; tissue slices stained with haematoxylin and eosin): no tissue damage was observed
